Data: patent US4579947A, “Substituted phenylalkylpiperazinylpropyl (ureas or thioureas) useful for treatment of immunological, inflammatory and allergic disorder” (Boehringer Ingelheim Pharmaceuticals, Inc., priority 1984, dated 1986)
Where a name gives a salt, the structure may show the parent alone.

Legend:
Type in all cases: cell-based
[1] = system: human leukocytes (basophils); test: Inhibition of human leukocyte (basophil) histamine release in vitro (rabbit anti-human IgE); details: Table A, 60 minutes at 37° C., Int. = interference with test procedure; for IC50: Leukocyte, 1 h, read-out: Inhibition IC50 (histamine release from human leukocytes (basophils))
Protocol: Separation of Leukocytes: A modification of the method of L. Lichtenstein and A. Osler, J.Exp.Med. 120, 507 (1964) was used. Heparinized human blood (80-100 ml) is mixed with 20 ml of saline (0.2%) containing 0.6 gm of dextrose and 1.2 gm dextran in propylene centrifuge tubes. The mixture is kept at ambient temperature for 60-90 minutes to allow the separation of erythrocytes from the platelet-leukocyte-rich supernate. The supernate is removed and centrifuged for 8 minutes at 110×g in cold. The leukocyte pellet is washed 2× with Tris buffer and finally suspended in 150-180 ml Tris-ACM buffer at 1-2×10^6 cells/ml. 2. Reaction Mixture: The reaction is carried out in 12×75 mm plastic tubes at a total volume of 1.25 ml. The reaction medium includes 0.05 ml rabbit anti-human IgE (the antigen), 0.2 ml of the test compound in water at concentrations ranging from 10-1000 μM, and 1.0 ml of the leukocyte suspension. The reaction mixture is incubated in a 37° C. shaking water bath for 60 minutes. Upon completion of the reaction, the tubes are centrifuged and the supernatants collected. The protein is removed from the supernatants by precipitation with 0.2 ml of 8% perchloric acid. 3. Histamine Assay: Histamine release is measured by the automated fluorometric method of W. Siraganian and W. Hook in Chapter 102 of the Manual of Clinical Immunology, 2nd Edition, Edited by R. Rose and H. Friedman, Published by the American Society for Microbiology, Washington, D.C. 1980. Percent inhibition is calculated as follows: [formula] The concentration which causes a 50 percent inhibition (IC50) of histamine release is interpolated from a plot of percent inhibition versus logarithm of drug concentration.

[2] = system: isolated guinea pig ileum; test: Antagonism of histamine-induced contraction of isolated guinea pig ileum; details: Cavia porcellus; Table C; histamine final concentration 0.2 μg/ml; read-out: Inhibition IC50 (histamine-induced contraction of isolated guinea pig ileum)
Protocol: The antagonism of the effects of histamine on the contraction of isolated guinea pig ileum by the compounds of formula I can be determined by the procedure of G. Possanza, A. Bauen, and P. Stewart, Int. Arch. Allergy Appl. Immunol., 49, 289 (1975). The degree of inhibition is determined as the difference between the contraction caused by histamine (final concentration 0.2 μg/ml) alone and that seen in the presence of both histamine and the test compound. The inhibitory activity of the test compound is expressed as that concentration of the compound which causes a 50% reduction of the contractile response (IC50).

[3] = system: rat peritoneal mast cells; test: Inhibition of rat peritoneal mast cell histamine release; details: Mast cell, 1 h; Table B; in vitro, sheep anti-rat IgE or ovalbumin, 60 minutes at 37° C.; Int. = interference with test procedure; read-out: Inhibition IC50 (histamine release from rat peritoneal mast cells)
Protocol: Harvest of Peritoneal Mast Cells: After the rats are sacrificed with ether, 20 ml of Minimum Essential Medium (MEM) containing 20 units/ml heparin is injected into the peritoneum. The abdomen is massaged for one minute and the lavage fluid collected. The peritoneal cells are centrifuged at 1800 rpm for 8 minutes in cold. After two washes with Tris A buffer, the cells are resuspended in Tris ACM buffer at 2-33 10^6 cells/ml. 2. Reaction Mixture: The reaction is carried out in 12×75 mm plastic tubes at a total volume of 1.25 ml. The reaction mixture includes 0.5 ml (10-1000 μg) sheep anti-rat IgE or ovalbumin, 0.2 ml of the test compound in water at concentrations ranging from 10-1000 μM, 0.5 ml phosphatidylserine solution (20-60 μg to each tube), and 0.5 ml of cell suspension. The reaction mixture is incubated in a 37° C. shaking water bath for 60 minutes. Upon completion of the reaction, the tubes are centrifuged and the supernatants collected. The protein is removed from the supernatants by precipitation with 0.2 ml of 8% perchloric acid. 3. Histamine Assay: Histamine release is measured by the automated fluorometric method of Siraganian, supra. The concentration which causes a 50% inhibition (IC50) of histamine release is computed as in Part A.

SMILES | IC50 [1] [µM] | IC50 [2] [µM] | IC50 [3] [µM] | Inhibition IC50 (histamine release from human leukocytes (basophils)) [1]
O=C(NCCCN1CCN(Cc2ccc(Cl)cc2)CC1)NC1CCCCC1 [Example 1, 1-{3-[4-(4-Chlorobenzyl)piperazin-1-yl]propyl}-3-cyclohexylurea dihydrochloride] | 50 | 0.015 | 108 | –
CNC(=O)NCCCN1CCN(Cc2ccc(Cl)cc2)CC1 [Example 2, 1-{3-[4-(4-Chlorobenzyl)piperazin-1-yl]propyl}-3-methylurea dihydrochloride] | 300 | 0.63 | – | –
CCCCNC(=O)NCCCN1CCN(Cc2ccc(Cl)cc2)CC1 [Example 3, 1-{3-[4-(4-Chlorobenzyl)piperazin-1-yl]propyl}-3-n-butylurea dihydrochloride hemihydrate] | 50 | 0.07 | – | –
CCCCCCNC(=O)NCCCN1CCN(Cc2ccc(Cl)cc2)CC1 [Example 4, 1-{3-[4-(4-Chlorobenzyl)piperazin-1-yl]propyl}-3-n-hexylurea dihydrochloride] | 8 | 0.05 | 110 | –
CCCCCCCCNC(=O)NCCCN1CCN(Cc2ccc(Cl)cc2)CC1 [Example 5, 1{3-[4-(4-Chlorobenzyl)piperazin-1-yl]propyl}-3-n-octylurea diihydrochloride] | 16 | 0.75 | 210 | –
O=C(NCCCN1CCN(Cc2ccc(F)cc2)CC1)NC1CCCCC1 [Example 6, 1-{3-[4-(4-Fluorobenzyl)piperazin-1-yl]propyl}-3-cyclohexylurea dihydrochloride monohydrate] | 50 | 0.11 | – | –
O=C(NCCCN1CCN(Cc2ccccc2)CC1)NC1CCCCC1 [Example 7, 1-{3-(4-Benzylpiperazin-1-yl)propyl]-3-cyclohexylurea dihydrochloride] | 240 | 0.32 | – | –
O=C(NCCCN1CCN(Cc2ccccc2)CC1)Nc1ccccc1 [Example 8, 1-[3-(4-Benzylpiperazin-1-yl)propyl]-3-phenylurea] | 400 | 0.21 | – | –
O=C(NCCCN1CCN(Cc2ccc(Cl)cc2)CC1)Nc1ccccc1 [Example 9, 1-{3-[4-(4-Chlorobenzyl)piperazin-1-yl]propyl}-3-phenylurea] | 78 | 0.05 | > 1000 | –
O=C(NCCCN1CCN(Cc2ccc(Cl)cc2)CC1)Nc1ccc(Cl)cc1 [Example 10, 1-{3-[4-(4-Chlorobenzyl)piperazin-1-yl]propyl}-3-(4-chlorophenyl)urea hydrochloride] | 30 | 0.15 | – | –
Cc1ccc(NC(=O)NCCCN2CCN(Cc3ccc(Cl)cc3)CC2)cc1 [Example 11, 1-{3-[4-(4-Chlorobenzyl)piperazin-1-yl]propyl}-3-(4-methylphenyl)urea dihydrochloride monohydrate] | 37 | 0.065 | – | –
COc1ccc(NC(=O)NCCCN2CCN(Cc3ccc(Cl)cc3)CC2)cc1 [Example 12, 1-{3-[4-(4-Chlorobenzyl)piperazin-1-yl]-propyl}-3-(4-methoxyphenyl)urea hydrochloride] | 80 | 0.015 | – | –
O=C(NCCCN1CCN(Cc2ccc(Cl)cc2)CC1)Nc1ccc(F)cc1 [Example 15, 1-{3-[4-(4-Chlorobenzyl)piperazin-1-yl]propyl}-3-(4-fluorophenyl)urea dihydrochloride monohydrate] | 20 | 0.06 | – | –
O=C(NCCCN1CCN(Cc2ccc(Cl)cc2)CC1)Nc1ccc([N+](=O)[O-])cc1 [Example 16, 1-{3-[4-(4-Chlorobenzyl)piperazin-1-yl]propyl}-3-(4-nitrophenyl)urea dihydrochloride] | 30 | 0.018 | – | –
O=C(NCCCN1CCCN(Cc2ccc(Cl)cc2)CC1)NC1CCCCC1 [Example 17, 1-{3-[4-(4-Chlorobenzyl)homopiperazin-1-yl]propyl}-3-cyclohexylurea dihydrochloride] | 13 | 0.15 | – | –
O=C(NCCCN1CCCN(Cc2ccc(Cl)cc2)CC1)Nc1ccccc1 [Example 18, 1-{3-[4-(4-Chlorobenzyl)homopiperazin-1-yl]propyl}-3-phenylurea dihydrochloride] | 15 | 0.55 | – | –
S=C(NCCCN1CCN(Cc2ccc(Cl)cc2)CC1)NC1CCCCC1 [Example 19, 1-{3-[4-(4-Chlorobenzyl)piperazin-1-yl]propyl}-3-cyclohexylthiourea] | 26 | 0.11 | – | –
S=C(NCCCN1CCN(Cc2ccc(Cl)cc2)CC1)Nc1ccccc1 [Example 20, 1-{3-[4-(4-Chlorobenzyl)piperazin-1-yl]propyl}-3-phenylthiourea] | 37 | 0.1 | – | –
CCCCCCNC(=S)NCCCN1CCN(Cc2ccc(Cl)cc2)CC1 [Example 21, 1-{3-[4-(4-Chlorobenzyl)piperazin-1-yl]propyl}-3-n-hexylthiourea dihydrochloride hemihydrate] | – | 0.08 | – | Int.
O=C(NCCCN1CCN(Cc2ccc(Cl)cc2)CC1)NCc1ccccc1 [Example 22, 1-{3-[4-(4-Chlorobenzyl)piperazin-1-yl]propyl}-3-benzylurea dihydrochloride] | 112 | 0.23 | – | –
CCCCCCNC(=O)NCCCN1CCN(CCc2ccc(Cl)cc2)CC1 [Example 23, 1-{3-[4-(4-Chlorophenethyl)piperazin-1-yl]propyl}-3-n-hexylurea dihydrochloride] | 16 | 0.02 | – | –
N#Cc1ccc(NC(=O)NCCCN2CCN(Cc3ccc(Cl)cc3)CC2)cc1 [Example 24, 1-{3-[4-(4-Chlorobenzyl)piperazin-1-yl]propyl}-3-(4-cyanophenyl)urea dihydrochloride monohydrate] | 81 | 0.008 | 150 | –
CCCCCCNC(=O)NCCCN1CCN(Cc2ccc(Cl)c(C(F)(F)F)c2)CC1.Cl.Cl [Example 26, 1-{3-[4-(3-Trifluoromethyl-4-chlorobenzyl)piperazin-1-yl]propyl}-3-n-hexylurea dihydrochloride] | – | 0.09 | – | Int.
N#Cc1ccc(NC(=O)NCCCN2CCN(CCCc3ccc(Cl)cc3)CC2)cc1 [Example 27, 1-{3-{4-[3-(4-Chlorophenyl)propyl]piperazin-1-yl}propyl}3-(4-cyanophenyl)urea dihydrocyloride monohydrate] | 20 | 0.11 | – | –
C=CCNC(=O)NCCCN1CCN(Cc2ccc(Cl)cc2)CC1 [Example 28, 1-{3-[4-(4-Chlorobenzyl)piperazin-1-yl]propyl}-3-allylurea dihydrochloride] | 120 | 0.17 | – | –
CC(=O)c1ccc(NC(=O)NCCCN2CCN(Cc3ccc(Cl)cc3)CC2)cc1 [Example 29, 1-{3-[4-(4-Chlorobenzyl)piperazin-1-yl]propyl}-3-(4-acetylphenyl)urea dihydrochloride dihydrate] | 115 | 0.02 | – | –
CCOc1ccc(NC(=O)NCCCN2CCN(Cc3ccc(Cl)cc3)CC2)cc1 [Example 30, 1-{3-[4-(4-Chlorobenzyl)piperazin-1-yl]propyl}-3-(4-ethoxyphenyl)urea dihydrochloride] | 35 | – | – | –
